In patent publication US20220235094A1, “CRYSTALLINE FORMS OF ANTIDEPRESSANT DRUG SAGE-217 AND PREPARATION METHOD THEREFOR” (priority 2019, published 2022):
Entries after “also recorded” stand apart in the source; their conditions may differ.

Legend:
[1] = Mechanical pressure stability, XRPD after 2 tons of pressure; format: physicochemical; conditions: 2 tons of mechanical pressure; for XRPD change after mechanical pressure: 100 mg sample
Procedure: To further evaluate the mechanical stability of the crystalline form 04 of the present application and the crystalline form K reported in WO 2018/039378 A1, a 100 mg sample was subjected to 2 tons of mechanical pressure, and the recovered tablets were gently ground and tested by XRPD.

[2] = Crystalline form stability as exposed powder and in sealed vial; conditions: for crystalline form stability in a sealed vial: 25° C./45% RH
[3] = DVS test (moisture adsorption isotherm, hygroscopicity); format: physicochemical
Procedure: The sample of crystalline form 04 prepared in Example 1 was placed on a microbalance plate in a sealed sample chamber, and then exposed to different relative humidity, the relative humidity ranged from […] to 90%, and changed in 10% increments. At each humidity level, the sample is balanced when dm/dt is less than 0.002% within 10 minutes. The mass of the dried sample and the equilibrium mass at each humidity level were recorded, and the weight change was plotted against relative humidity, which is the moisture adsorption isotherm of the sample.
Regarding the description of hygroscopicity characteristics and the definition of hygroscopic weight gain (Appendix XIX J of Chinese Pharmacopoeia 2010 Edition, Guidelines for Hygroscopicity, with experimental conditions: 25±1° C., 80% relative humidity):
Deliquescent: sufficient water is absorbed to form liquid
Extremely hygroscopic: the increase in mass is not less than 15%
Hygroscopic: the increase in mass is less than 15% but not less than 2%
Slightly hygroscopic: the increase in mass is less than 2% but not less than 0.2%
Practical nonhygroscopic: the increase in mass is less than 0.2%.

[4] = Crystalline form stability under different temperature and humidity conditions; format: physicochemical
Procedure: The samples of crystalline form 04 prepared in Example 1 were taken, and placed at 25° C./60% humidity and 40° C./75% humidity for 1 month; placed at 2-8° C. for 9 months: after the placement, the above-mentioned samples were taken out and tested for the crystalline form.

[5] = Thermodynamic solubility test in water; format: physicochemical; conditions: 25° C., 24 hours; for Area: HPLC
Procedure: Thermodynamic solubility test: the solid powder was added to water to a saturated solution, and then the suspension liquid was stirred under magnetic stirring at 25° C. for 24 hours. After completion, it was filtered with a 0.20 μm filter and analyzed by HPLC. Tests were carried out in parallel, and each group was tested twice to take the average.

[6] = Stability compared between crystalline forms

Row | Structure (SMILES) | XRPD change after mechanical pressure [1] | crystalline form stability in a sealed vial [2] | Crystalline form after storage ([4]; 0-8° C., 9 months) | Crystalline form after storage ([4]; 2-8° C., 9 months) | Concentration (thermodynamic solubility) ([5]; Average) [µg/mL] | Concentration (thermodynamic solubility) ([5]; Group 1) [µg/mL] | Concentration (thermodynamic solubility) ([5]; Group 2) [µg/mL] | Area ([5]; Average) [mAu*s] | Area ([5]; Group 1) [mAu*s] | Area ([5]; Group 2) [mAu*s] | stability compared with other crystalline forms [6] | time stable in the exposed powder state [2] [h] | further results
1 | C[C@@]1(O)CC[C@H]2[C@H](CC[C@@H]3[C@@H]2CC[C@]2(C)[C@@H](C(=O)Cn4cc(C#N)cn4)CC[C@@H]32)C1 [crystalline form 04, 1-(2-((3R,5R,8R,9R,10S,13S,14S,17S)-3-hydroxy-3,13-dimethylhexadecahydro-1H-cyclopenta[a]phenanthren-17-yl)-2-oxoethyl)-1H-pyrazole-4-carbonitrile] | no obvious change | more than seven days | the crystalline form remains | form 04 | 0.4375 | 0.4506 | 0.4243 | 12.2 | 12.6 | 11.8 | – | – | mechanical / physical stability compared with crystalline form K [1]: better than that of the crystalline form K; also recorded: better mechanical stress stability; time stable in the exposed powder state ([2]; time in words): one day; hygroscopicity ([3]; DVS curve): no or almost no hygroscopicity; also recorded: no hygroscopicity; water absorption ([3]; DVS, 25° C., relative humidity changed from 40%/0 to 90%): 0.06%; Crystalline form after storage ([4]; 25° C., 60% relative humidity, 1 month): stored stably for one month without change; also recorded: form 04; Crystalline form after storage ([4]; 40° C., 75% relative humidity, 1 month): stored stably for one month without change; also recorded: form 04
2 | C[C@@]1(O)CC[C@H]2[C@H](CC[C@@H]3[C@@H]2CC[C@]2(C)[C@@H](C(=O)Cn4cc(C#N)cn4)CC[C@@H]32)C1 [crystalline form D-1, 1-(2-((3R,5R,8R,9R,10S,13S,14S,17S)-3-hydroxy-3,13-dimethylhexadecahydro-1H-cyclopenta[a]phenanthren-17-yl)-2-oxoethyl)-1H-pyrazole-4-carbonitrile] | – | more than seven days | the crystalline form remains | the crystalline form did not change | – | – | – | – | – | – | better stability than crystalline form D | 18 | –
3 | C[C@@]1(O)CC[C@H]2[C@H](CC[C@@H]3[C@@H]2CC[C@]2(C)[C@@H](C(=O)Cn4cc(C#N)cn4)CC[C@@H]32)C1 [crystalline form 08, 1-(2-((3R,5R,8R,9R,10S,13S,14S,17S)-3-hydroxy-3,13-dimethylhexadecahydro-1H-cyclopenta[a]phenanthren-17-yl)-2-oxoethyl)-1H-pyrazole-4-carbonitrile] | – | – | – | – | – | – | – | – | – | – | relatively low stability | – | –
4 | C[C@@]1(O)CC[C@H]2[C@H](CC[C@@H]3[C@@H]2CC[C@]2(C)[C@@H](C(=O)Cn4cc(C#N)cn4)CC[C@@H]32)C1 [crystalline form K, 1-(2-((3R,5R,8R,9R,10S,13S,14S,17S)-3-hydroxy-3,13-dimethylhexadecahydro-1H-cyclopenta[a]phenanthren-17-yl)-2-oxoethyl)-1H-pyrazole-4-carbonitrile, reference compound] | a slight decrease in its crystallinity | – | – | – | 0.398 | 0.3927 | 0.4032 | 11.1 | 10.9 | 11.2 | – | – | –
5 | C[C@@]1(O)CC[C@H]2[C@H](CC[C@@H]3[C@@H]2CC[C@]2(C)[C@@H](C(=O)Cn4cc(C#N)cn4)CC[C@@H]32)C1 [crystalline form D-2, 1-(2-((3R,5R,8R,9R,10S,13S,14S,17S)-3-hydroxy-3,13-dimethylhexadecahydro-1H-cyclopenta[a]phenanthren-17-yl)-2-oxoethyl)-1H-pyrazole-4-carbonitrile] | – | more than seven days | – | – | – | – | – | – | – | – | better stability than crystalline form D | 18 | –
6 | C[C@@]1(O)CC[C@H]2[C@H](CC[C@@H]3[C@@H]2CC[C@]2(C)[C@@H](C(=O)Cn4cc(C#N)cn4)CC[C@@H]32)C1 [crystalline form 06, 1-(2-((3R,5R,8R,9R,10S,13S,14S,17S)-3-hydroxy-3,13-dimethylhexadecahydro-1H-cyclopenta[a]phenanthren-17-yl)-2-oxoethyl)-1H-pyrazole-4-carbonitrile] | – | more than seven days | – | – | – | – | – | – | – | – | – | 16 | –
